What all share (assay type): cell-based
The subject of experiment [1] is K. pneumoniae strain in clinical urine sample BIUR0084. Put plainly: Automated MultiPath AST cartridge on clinical urine, Example 8. As to conditions: 4 h growth, fold growth value of 2, matched CLSI broth microdilution.
Another experiment relates to E. coli ATCC 25922. Kind of experiment: Novel 4.5-hour AST in presence of beta-lactamase producing K. pneumoniae, Example 11. As to conditions: Escherichia coli, ATCC25922, 4.5 h; sensitive E. coli strain; increasing amounts of beta-lactamase producing K. pneumoniae; read-out: MIC, novel 4.5-hour AST method. On the procedure: Experimental procedure. Preparation of Antibiotic Plates: Antibiotic plates prepared as described in Impact of Non-Sterile Sample on Target MIC example.
E. coli was diluted to 5×10^5 CFU/mL (CLSI standard concentration) while K. pneumoniae was diluted to various inoculum (ranging from 1×10^6 and 5×10^8 CFU/mL).
30 μL of each processed urine was added to 70 μL of 1× cation-adjusted Mueller-Hinton Broth (MHBII) containing species-specific Alexa647N-labeled DNA oligonucleotide FISH probes and unlabeled DNA helper probes. […] 10 μL of the prepared magnetic particle mixture was then added to the well.
Four-Hour Growth: The E. coli was tested in the presence of varying inoculum of K. pneumoniae-OXA for susceptibility against 2 antimicrobial agents: Imipenem and Meropenem.
100 μL of each well of the incubated sample-antibiotic plate was transferred to a corresponding well of a dehydrated buffer plate and combined with FISH probes, helper probes, magnetic particles, and focus particles in the same manner as described above for assay time zero.
All data was then compared to CLSI standard BMD.

A further experiment deals with K. pneumoniae CDC0126. Put plainly: Novel rapid AST (4 h differential growth, FISH cell counting) in urine matrix, Example 7. As to conditions: Klebsiella pneumoniae, 4 h growth, fold-growth threshold 20, read-out: MIC generated by novel rapid AST method. The method, then: Bacterial cell preparation: 50 bacterial strains with known resistance profiles were collected from either the ATCC or from the CDC antibiotic resistance bank (AR bank) and are shown in Table A. Bacterial cultures for each of these were obtained by inoculating Trypticase Soy Broth (TSB, Hardy Diagnostics cat. U65) with 3 to 5 colonies from fresh tryptic soy agar plates (TSA, BD cat. 221185) and growing for 1.5 to 3 hours at 35° C. to achieve log-phase growth. Using optical density at 600 nm to estimate cell concentration, each culture was diluted to approximately 5×10^6 colony-forming units (CFU)/mL in cation-adjusted Mueller Hinton II (MHBII, Teknova cat. M5860).
A reaction mixture was prepared consisting of 30 μL processed urine, 10 μL of the 5×10^6 CFU/mL bacterial dilution, 60 μL MHBII (1× final concentration in 100 μL) and the appropriate species-specific Alexa647N-labeled DNA oligonucleotide FISH probe and its associated unlabeled DNA helper probes for the target bacterial species. […] 10 μL of the prepared magnetic particle mixture was then added to the well. […]
Four Hour Growth: While the time zero cell quantification was occurring, 12 μL of prepared bacterial culture, 36 uL pooled human urine processed as done for the assay time zero, 60 uL of 2×MHB II (Teknova, cat. #M5860) and 2 uL water was added to each well of the prepared antibiotic plate. […]

Values after ≈ are worked out from the molar mass of the structure shown. Some results are limits rather than exact numbers.

The text below walks through data of patent US12287332B2, “Test cartridges” (First Light Diagnostics, Inc., priority 2018, dated 2025).

As to `Cc1nnc(SCC2=C(C(=O)O)N3C(=O)[C@@H](NC(=O)Cn4cnnn4)[C@H]3SC2)s1` [Cefazolin], in experiment [1], the “sensitive/resistant call by MultiPath” value is on record as “resistant”.

Regarding `C[C@@H](O)[C@H]1C(=O)N2C(C(=O)O)=C(SCCN=CN)C[C@H]12` [Imipenem], the MIC in the experiment with E. coli ATCC 25922 is under 1 µg/mL.

Regarding `O=C(O)c1cn(C2CC2)c2cc(N3CCNCC3)c(F)cc2c1=O` [Ciprofloxacin], in the experiment with K. pneumoniae CDC0126, the MIC was 0.25 µg/mL (≈ 0.754 µM).

Regarding Trimethoprim/Sulfamethoxazole, the “sensitive/resistant call by MultiPath” value in experiment [1] was “resistant”.
